Reference: US20260092071A1, “COMPOUNDS AND COMPOSITIONS AS SMARCA2/4 DEGRADERS AND USES THEREOF” (REGENTS OF THE UNIVERSITY OF MICHIGAN, priority 2022, published 2026)

Assays:
Format in all cases: cell-based
SMARCA4 [1] = biological target: T1, SMARCA4 (Homo sapiens, UniProt P51532); experiment: HiBiT assay for protein degradation, Hela SMARCA4-HiBiT cells (A series); set-up: fuse HiBiT to the carboxy terminus of SMARCA2 (Promega CS302365) or SMARCA4 (Promega CS3023225); host or cells: HeLa (CRISPR/Cas9 HiBiT knock-in); details: for DC50: read-out: SMARC A4 Hela HiBit DC50
Method: (§1) Hela cells were genetically modified via CRISPR/Cas9 to fuse HiBiT to the carboxy terminus of SMARCA2 (Promega CS302365) or SMARCA4 (Promega CS3023225). Cells were cultured in DMEM containing 10% FBS and 1% (Vol:Vol) penicillin-streptomycin. […] At the end of experiment, levels of SMARCA2 or SMARCA4 expression were assessed with Nano-Glo® HiBiT Lytic Detection Assay (Promega N3050). IC50 was obtained using the GraphPad Prism data analysis software.

SMARCA2 [2] = biological target: T2, SMARCA2 (Homo sapiens, UniProt P51531); experiment: HiBiT assay for protein degradation, Hela SMARCA2-HiBiT cells (A series); set-up: Hela cells were genetically modified via CRISPR/Cas9 to fuse HiBiT to the carboxy terminus of SMARCA2; host or cells: HeLa (CRISPR/Cas9 HiBiT knock-in); details: for Dmax: read-out: SMARC A2 Hela HiBit Dmax (%); for DC50: read-out: SMARC A2 Hela HiBit DC50;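 for SMARC A2 Hela HiBit Dmax (%): 24 h compound treatment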
Method: as §1

SMARCA2 [3] = biological target: T2, SMARCA2; experiment: HiBit assay in engineered HT1080 CRISPR knock-in cell, 6 hrs (B series), SMARCA2; details: 6 hrs incubation
Outline: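 HT1080 CRISPR knock-in cells carrying the HiBiT tag were seeded onto compounds (final DMSO 0.1%) and incubated 6 hrs at 37° C, 5% CO2. Remaining tagged protein was detected by lytic HiBiT luminescence after adding LgBiT protein and substrate, with LgBiT-free wells serving as negative control.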

SMARCA4 [4] = biological target: T1, SMARCA4; experiment: HiBit assay in engineered HT1080 CRISPR knock-in cell, 6 hrs (B series), SMARCA4; details: 6 hrs incubation
Outline: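 Compounds were dispensed first, then HT1080 knock-in cells added and incubated for 6 hrs at 37° C. Next, detection reagent containing LgBiT and lytic substrate was added. Plates were shaken 10 min and centrifuged, and luminescence was measured.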

[5] = HeLa, read-out: SMARC A4 Hela HiBit Dmax(%)
[6] = Hela SMARCA4-HiBiT cells, 24 hours treatment
[7] = Hela SMARCA2-HiBiT cells, 24 hours treatment
[8] = Hela SMARCA4-HiBiT cells, 24 hours treatment, read-out: SMARC A4 Hela HiBit Dmax
[9] = Hela SMARCA4-HiBiT cells, 24 hours treatment, read-out: SMARC A4 Hela HiBit Dmax(%)

T2 sequence (P51531 whole entry): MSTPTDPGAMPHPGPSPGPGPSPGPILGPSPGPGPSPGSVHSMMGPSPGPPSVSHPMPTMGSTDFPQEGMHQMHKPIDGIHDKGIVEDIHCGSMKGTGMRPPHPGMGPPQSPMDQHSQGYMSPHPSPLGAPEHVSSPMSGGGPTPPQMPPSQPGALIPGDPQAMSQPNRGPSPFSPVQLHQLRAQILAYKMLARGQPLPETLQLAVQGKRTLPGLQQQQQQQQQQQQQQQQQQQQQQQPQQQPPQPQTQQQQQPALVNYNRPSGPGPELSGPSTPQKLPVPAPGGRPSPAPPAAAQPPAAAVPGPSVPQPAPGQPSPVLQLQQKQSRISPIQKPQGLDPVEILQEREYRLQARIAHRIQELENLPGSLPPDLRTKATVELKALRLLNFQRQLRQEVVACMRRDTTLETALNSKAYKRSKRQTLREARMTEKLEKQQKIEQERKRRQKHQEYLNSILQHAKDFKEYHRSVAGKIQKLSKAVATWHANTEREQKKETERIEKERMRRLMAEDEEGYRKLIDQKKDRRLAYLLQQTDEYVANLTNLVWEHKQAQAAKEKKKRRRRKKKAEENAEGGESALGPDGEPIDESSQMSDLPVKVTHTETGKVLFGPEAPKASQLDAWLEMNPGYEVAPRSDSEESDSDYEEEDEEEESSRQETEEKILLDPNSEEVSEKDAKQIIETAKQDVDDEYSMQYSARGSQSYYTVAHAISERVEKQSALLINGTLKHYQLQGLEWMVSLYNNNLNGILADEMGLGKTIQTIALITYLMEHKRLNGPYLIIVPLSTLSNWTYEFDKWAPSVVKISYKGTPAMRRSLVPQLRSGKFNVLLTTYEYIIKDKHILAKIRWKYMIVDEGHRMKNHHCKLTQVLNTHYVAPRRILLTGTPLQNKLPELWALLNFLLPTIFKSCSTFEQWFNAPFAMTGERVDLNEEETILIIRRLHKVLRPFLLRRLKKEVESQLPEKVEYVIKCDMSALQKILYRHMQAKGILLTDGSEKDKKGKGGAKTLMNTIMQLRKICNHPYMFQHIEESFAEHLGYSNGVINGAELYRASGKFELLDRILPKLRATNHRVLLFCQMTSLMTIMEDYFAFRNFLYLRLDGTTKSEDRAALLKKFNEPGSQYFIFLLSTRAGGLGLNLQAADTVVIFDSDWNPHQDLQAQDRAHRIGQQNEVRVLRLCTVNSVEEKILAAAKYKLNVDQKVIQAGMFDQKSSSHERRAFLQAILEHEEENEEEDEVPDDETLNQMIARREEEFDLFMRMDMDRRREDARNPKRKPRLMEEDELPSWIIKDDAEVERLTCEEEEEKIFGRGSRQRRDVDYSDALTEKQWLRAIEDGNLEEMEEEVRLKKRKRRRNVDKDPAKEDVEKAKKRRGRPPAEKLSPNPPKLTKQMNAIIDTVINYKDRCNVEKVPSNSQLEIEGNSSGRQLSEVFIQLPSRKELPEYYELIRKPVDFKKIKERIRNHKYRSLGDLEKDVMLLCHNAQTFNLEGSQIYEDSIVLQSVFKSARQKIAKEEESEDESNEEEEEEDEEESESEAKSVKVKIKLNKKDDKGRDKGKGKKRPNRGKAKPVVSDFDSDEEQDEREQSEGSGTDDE
T1 sequence (P51532 whole entry): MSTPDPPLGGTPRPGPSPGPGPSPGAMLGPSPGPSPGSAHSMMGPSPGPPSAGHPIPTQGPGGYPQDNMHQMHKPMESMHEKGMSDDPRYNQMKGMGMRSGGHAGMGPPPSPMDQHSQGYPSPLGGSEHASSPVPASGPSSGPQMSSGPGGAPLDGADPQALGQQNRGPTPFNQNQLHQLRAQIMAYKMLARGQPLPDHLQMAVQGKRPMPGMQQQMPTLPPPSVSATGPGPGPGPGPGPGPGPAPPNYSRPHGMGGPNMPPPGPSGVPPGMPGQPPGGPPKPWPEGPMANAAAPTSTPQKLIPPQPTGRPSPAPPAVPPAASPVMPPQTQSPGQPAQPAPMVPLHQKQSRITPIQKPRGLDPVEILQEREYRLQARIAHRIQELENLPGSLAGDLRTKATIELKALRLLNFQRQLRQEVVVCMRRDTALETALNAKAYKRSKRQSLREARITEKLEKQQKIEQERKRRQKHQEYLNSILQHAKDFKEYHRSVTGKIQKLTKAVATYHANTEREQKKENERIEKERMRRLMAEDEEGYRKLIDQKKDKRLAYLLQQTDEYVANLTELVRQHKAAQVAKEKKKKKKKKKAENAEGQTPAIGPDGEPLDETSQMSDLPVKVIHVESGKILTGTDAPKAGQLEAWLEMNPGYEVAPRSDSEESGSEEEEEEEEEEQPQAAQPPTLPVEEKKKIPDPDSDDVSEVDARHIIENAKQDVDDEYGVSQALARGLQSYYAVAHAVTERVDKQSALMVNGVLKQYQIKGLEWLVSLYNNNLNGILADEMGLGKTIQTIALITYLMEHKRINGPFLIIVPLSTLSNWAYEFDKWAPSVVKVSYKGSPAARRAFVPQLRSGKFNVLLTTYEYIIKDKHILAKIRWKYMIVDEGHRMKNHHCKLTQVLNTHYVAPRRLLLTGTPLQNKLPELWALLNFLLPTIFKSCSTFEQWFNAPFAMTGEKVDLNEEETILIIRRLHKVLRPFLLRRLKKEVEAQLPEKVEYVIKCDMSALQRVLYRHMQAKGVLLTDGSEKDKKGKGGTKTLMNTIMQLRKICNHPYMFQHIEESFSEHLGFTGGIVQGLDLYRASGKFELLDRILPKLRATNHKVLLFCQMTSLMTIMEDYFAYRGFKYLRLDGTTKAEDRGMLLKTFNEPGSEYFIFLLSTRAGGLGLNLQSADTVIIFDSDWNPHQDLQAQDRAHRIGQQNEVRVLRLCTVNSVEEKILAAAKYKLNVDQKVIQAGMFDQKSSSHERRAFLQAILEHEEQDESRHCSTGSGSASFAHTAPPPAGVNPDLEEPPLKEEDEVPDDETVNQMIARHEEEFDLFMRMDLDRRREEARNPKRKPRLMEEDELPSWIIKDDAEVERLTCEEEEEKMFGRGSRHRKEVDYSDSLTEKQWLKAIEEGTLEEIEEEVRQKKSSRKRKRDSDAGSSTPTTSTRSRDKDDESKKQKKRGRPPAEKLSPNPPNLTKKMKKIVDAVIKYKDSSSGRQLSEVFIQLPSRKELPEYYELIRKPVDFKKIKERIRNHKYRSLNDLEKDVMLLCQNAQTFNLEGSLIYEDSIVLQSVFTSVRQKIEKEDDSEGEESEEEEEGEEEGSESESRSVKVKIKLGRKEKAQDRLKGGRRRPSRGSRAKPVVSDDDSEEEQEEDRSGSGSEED

| Compound | DC50 (SMARCA4 [1]; [6]) [nM] | DC50 (SMARCA2 [2]; [7]) [nM] | Dmax (SMARCA4 [1]; [8]) [%] | Dmax (SMARCA2 [2]; [7]) [%] | also measured |
| --- | --- | --- | --- | --- | --- |
| Cc1ncsc1-c1ccc([C@H](C)NC(=O)[C@@H]2C[C@@H](O)CN2C(=O)[C@@H](NC(=O)CN2CCC(c3ccc4c(c3)-n3c(nc(=O)c5c(Br)cccc53)C43CCCCC3)CC2)C(C)(C)C)cc1 [Compound A40, (2S,4R)-1-((S)-2-(2-(4-(4′-bromo-5′-oxo-5′H-spiro[cyclohexane-1,7′-indolo[1,2-a]quinazolin]-10′-yl)piperidin-1-yl)acetamido)-3,3-dimethylbutanoyl)-4-hydroxy-N—((S)-1-(4-(4-methylthiazol-5-yl)phenyl)ethyl)pyrrolidine-2-carboxamide] |  |  |  |  | Dmax (SMARCA4 [1]; [5]): > 90%; DC50 (SMARCA4 [1]): < 100 nM; Dmax (SMARCA2 [2]; HeLa): > 90%; DC50 (SMARCA2 [2]): < 100 nM |
| Cc1ncsc1-c1ccc([C@H](C)NC(=O)[C@@H]2C[C@@H](O)CN2C(=O)[C@@H](NC(=O)[C@H]2CC[C@H](CN3CCC(c4ccc5c(c4)C4(CCCCC4)c4nc(=O)c6c(Br)cccc6n4-5)CC3)CC2)C(C)(C)C)cc1 [Compound A14, (2S,4R)-1-((S)-2-((1r,4S)-4-((4-(4′-bromo-5′-oxo-5′H-spiro[cyclohexane-1,7′-indolo[1,2-a]quinazolin]-9′-yl)piperidin-1-yl)methyl)cyclohexane-1-carboxamido)-3,3-dimethylbutanoyl)-4-hydroxy-N—((S)-1-(4-(4-methylthiazol-5-yl)phenyl)ethyl)pyrrolidine-2-carboxamide] | 100 to 500 | < 100 |  |  | Dmax (SMARCA4 [1]; [5]): 50 to 69%; Dmax (SMARCA2 [2]; HeLa): > 90% |
| Cc1ncsc1-c1ccc([C@H](CC(=O)N2CCC(CN3CCC(c4ccc5c(c4)-n4c(nc(=O)c6c(Br)cccc64)C54CCCCC4)CC3)CC2)NC(=O)[C@@H]2C[C@@H](O)CN2C(=O)[C@@H](n2cc(C3CC3)nn2)C(C)(C)C)cc1 [Compound A141, (2S,4R)—N—((S)-3-(4-((4-(4′-bromo-5′-oxo-5′H-spiro[cyclohexane-1,7′-indolo[1,2-a]quinazolin]-10′-yl)piperidin-1-yl)methyl)piperidin-1-yl)-1-(4-(4-methylthiazol-5-yl)phenyl)-3-oxopropyl)-1-((S)-2-(4-cyclopropyl-1H-1,2,3-triazol-1-yl)-3,3-dimethylbutanoyl)-4-hydroxypyrrolidine-2-carboxamide] | < 10 | < 10 | > 90 | > 90 |  |
| Cc1ncsc1-c1ccc([C@H](C)NC(=O)[C@@H]2C[C@@H](O)CN2C(=O)[C@H](C2CCN(C(=O)[C@H]3CC[C@H](CN4CCC(c5ccc6c(c5)-n5c(nc(=O)c7c(Br)cccc75)C65CCCCC5)CC4)CC3)CC2)n2cc(C3CC3)nn2)cc1 [Compound A132, (2S,4R)-1-((S)-2-(1-((1r,4S)-4-((4-(4′-bromo-5′-oxo-5′H-spiro[cyclohexane-1,7′-indolo[1,2-a]quinazolin]-10′-yl)piperidin-1-yl)methyl)cyclohexane-1-carbonyl)piperidin-4-yl)-2-(4-cyclopropyl-1H-1,2,3-triazol-1-yl)acetyl)-4-hydroxy-N—((S)-1-(4-(4-methylthiazol-5-yl)phenyl)ethyl)pyrrolidine-2-carboxamide] | > 1000 | < 10 | < 50 | > 90 |  |
| Cc1ncsc1-c1ccc([C@H](C)NC(=O)[C@@H]2C[C@@H](O)CN2C(=O)[C@@H](n2cc([C@H]3CC[C@H](CN4CCC(c5ncc6c(n5)-n5c(nc(=O)c7c(Br)cccc75)C65CCCCC5)CC4)CC3)nn2)C(C)(C)C)cc1 [Compound A31, (2S,4R)-1-((S)-2-(4-((1r,4S)-4-((4-(4′-bromo-5′-oxo-5′H-spiro[cyclohexane-1,7′-pyrimido[5′,4′: 4,5]pyrrolo[1,2-a]quinazolin]-10′-yl)piperidin-1-yl)methyl)cyclohexyl)-1H-1,2,3-triazol-1-yl)-3,3-dimethylbutanoyl)-4-hydroxy-N—((S)-1-(4-(4-methylthiazol-5-yl)phenyl)ethyl)pyrrolidine-2-carboxamide] | > 1000 | > 1000 |  | < 50 | Dmax (SMARCA4 [1]; [9]): 50 to 69% |
| Cc1ncsc1-c1ccc(CNC(=O)[C@@H]2C[C@@H](O)CN2C(=O)[C@@H](n2cc([C@H]3CC[C@H](CN4CCC(c5ccc6c(c5)-n5c(nc(=O)c7c(Br)cccc75)C65CCCCC5)CC4)CC3)nn2)C(C)(C)C)cc1 [Compound A67, (2S,4R)-1-((S)-2-(4-((1r,4S)-4-((4-(4′-bromo-5′-oxo-5′H-spiro[cyclohexane-1,7′-indolo[1,2-a]quinazolin]-10′-yl)piperidin-1-yl)methyl)cyclohexyl)-1H-1,2,3-triazol-1-yl)-3,3-dimethylbutanoyl)-4-hydroxy-N-(4-(4-methylthiazol-5-yl)benzyl)pyrrolidine-2-carboxamide] | < 100 | < 100 |  | > 90 | Dmax (SMARCA4 [1]; [9]): 70 to 90% |
| Cc1ncsc1-c1ccc([C@H](CN2CCOCC2)NC(=O)[C@@H]2C[C@@H](O)CN2C(=O)[C@H](C2CCOCC2)n2cc([C@H]3CC[C@H](CN4CCC(c5ccc6c(c5)-n5c(nc(=O)c7c(Cl)cccc75)C65CCCCC5)CC4)CC3)nn2)cc1 [Compound A100, (2S,4R)-1-((S)-2-(4-((1r,4S)-4-((4-(4′-chloro-5′-oxo-5′H-spiro[cyclohexane-1,7′-indolo[1,2-a]quinazolin]-10′-yl)piperidin-1-yl)methyl)cyclohexyl)-1H-1,2,3-triazol-1-yl)-2-(tetrahydro-2H-pyran-4-yl)acetyl)-4-hydroxy-N—((R)-1-(4-(4-methylthiazol-5-yl)phenyl)-2-morpholinoethyl)pyrrolidine-2-carboxamide] | > 1000 | < 10 | 50 to 69 | > 90 |  |
| Cc1ncsc1-c1ccc([C@H](CN2CC3(COC3)C2)NC(=O)[C@@H]2C[C@@H](O)CN2C(=O)[C@@H](n2cc([C@H]3CC[C@H](CN4CCC(c5ccc6c(c5)-n5c(nc(=O)c7c(Cl)cccc75)C6(C)C)CC4)CC3)nn2)C(C)(C)C)cc1 [Compound A98, (2S,4R)-1-((S)-2-(4-((1r,4S)-4-((4-(4-chloro-7,7-dimethyl-5-oxo-5,7-dihydroindolo[1,2-a]quinazolin-10-yl)piperidin-1-yl)methyl)cyclohexyl)-1H-1,2,3-triazol-1-yl)-3,3-dimethylbutanoyl)-4-hydroxy-N—((R)-1-(4-(4-methylthiazol-5-yl)phenyl)-2-(2-oxa-6-azaspiro[3.3]heptan-6-yl)ethyl)pyrrolidine-2-carboxamide] | > 1000 | < 10 | < 50 | > 90 |  |
| Cc1ncsc1-c1ccc([C@H](C)NC(=O)[C@@H]2C[C@@H](O)CN2C(=O)[C@H](C(C)C)n2cc(CC3CCC(N4CCC(c5cccc6c5C(C)(C)c5nc(=O)c7c(Cl)cccc7n5-6)CC4)CC3)nn2)cc1 (stereo partly drawn) [Compound B132, (2S,4R)-1-((S)-2-(4-((4-(4-(4-chloro-7,7-dimethyl-5-oxo-5,7-dihydroindolo[1,2-a]quinazolin-8-yl)piperidin-1-yl)cyclohexyl)methyl)-1H-1,2,3-triazol-1-yl)-3-methylbutanoyl)-4-hydroxy-N—((S)-1-(4-(4-methylthiazol-5-yl)phenyl)ethyl)pyrrolidine-2-carboxamide] |  |  |  |  | DC50 (SMARCA2 [3]; HT1080 CRISPR knock-in cells, read-out: SMARC A2 HT1080 HiBit DC50): < 100 nM; Dmax (SMARCA2 [3]; HT-1080, HT1080 CRISPR knock-in cells, read-out: SMARC A2 HT1080 HiBit Dmax (%)): > 90%; DC50 (SMARCA4 [4]; HT1080 CRISPR knock-in cells, read-out: SMARC A4 HT1080 HiBit DC50): 100 to 500 nM; Dmax (SMARCA4 [4]; HT-1080, HT1080 CRISPR knock-in cells, read-out: SMARC A4 HT1080 HiBit Dmax(%)): 70 to 90% |
